pIC50: −log10 of the molar value.
These molecules were tested against hLPAR1 (human lysophosphatidic acid receptor 1, Accession No.: NM_001401.4) (Homo sapiens, UniProt Q92633) (assay: cell-based). Details: LPAR1 inhibitory activity IC50, Table 1; FLIPR method, CHO-K1 cells overexpressing hLPAR1.
Protocol: The antagonist properties of the compounds in the present disclosure were determined using the FLIPR (Fluorometric Imaging Plate Reader) method in CHO-K1 cells (Chinese Hamster Ovary cells K1, ATCC) overexpressing hLPAR1 (human lysophosphatidic acid receptor 1, Accession No.: NM_001401.4).
CHO-K1 cells stably expressing hLPAR1 were placed in a cell culture incubator at 37°C with 5% CO2 and cultured in F-12 medium containing 10% FBS (fetal bovine serum, Gibco, 10099-141), 1% penicillin-streptomycin (Gibco, 15140-122), and 0.4 mg/mL Hygromycin B (Gibco, 10687010). 18-24 hours before the FLIPR experiment, the cells were seeded into a 96-well plate at a density of 250,000 cells/mL (25,000 cells/well) and incubated overnight in the cell culture incubator. On the day of the experiment, the medium was removed, and the cells were washed with FLIPR buffer (2.5 mM probenecid (Thermo, P36400), 1.3 mM CaCl2, 3.3 mM Na2CO3, 1 mM MgSO4, 20 mM HEPES (Invitrogen, 15630080), 1× HBSS (Invitrogen, 14065056), 0.1% BSA (BioSharp, 70080030)). 75 µL of […] Fluo-4 AM fluorescent dye (Thermo, F14202) was added to each well and incubated for 1.0 hour at 37°C for dye loading. The 96-well plate was then washed once with buffer, and 50 µL of buffer containing the test compound or vehicle was added to each well, followed by incubation at room temperature for 30 min. The cell plate was then placed into the FLIPR for baseline fluorescence measurement (excitation wavelength at 485 nm, emission wavelength at 525 to 535 nm). Subsequently, 50 µL/well of agonist (final concentration 1 µM oleoyl-L-α-lysophosphatidic acid sodium salt (Sigma, L7260)) or vehicle (ultrapure water) was added, and fluorescence values were measured at 1-second intervals for 2 min. Finally, the output fluorescence counts were analyzed using GraphPad Prism 9.0 software log(inhibitor) vs. response--Variable slope (four parameters) equation to calculate IC50 values.
Table 1: Inhibitory activity data of compounds against LPAR1

hLPAR1 (human lysophosphatidic acid receptor 1, Accession No.: NM_001401.4), sequence (Q92633 whole entry): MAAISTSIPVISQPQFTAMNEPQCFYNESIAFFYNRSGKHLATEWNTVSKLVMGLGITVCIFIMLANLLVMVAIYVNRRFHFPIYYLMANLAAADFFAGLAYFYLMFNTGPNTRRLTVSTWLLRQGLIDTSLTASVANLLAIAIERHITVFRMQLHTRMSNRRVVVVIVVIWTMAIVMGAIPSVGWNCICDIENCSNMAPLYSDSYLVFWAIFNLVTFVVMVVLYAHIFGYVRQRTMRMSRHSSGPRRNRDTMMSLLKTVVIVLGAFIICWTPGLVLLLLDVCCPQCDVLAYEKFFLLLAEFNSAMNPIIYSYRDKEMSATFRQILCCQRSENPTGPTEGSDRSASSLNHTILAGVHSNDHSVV

SMILES | pIC50
CCC[C@@H](C)OC(=O)Nc1c(-c2ccc(C#CC3(CC(=O)O)CCC3)c(C)n2)nnn1C [compound 325] | 7.39
Cc1nc(-c2nnn(C)c2CNC(=O)OCc2cc(F)cnc2Cl)ccc1C#CC1(CC(=O)O)CC1 [compound 117] | 7.10
Cc1nc(-c2nnn(C)c2NC(=O)O[C@H](C)C(C)C)ccc1C#CC1(CC(=O)O)CC1 [compound 310] | 6.94
Cc1nc(-c2nnn(C)c2NC(=O)O[C@H](C)C23CC(C2)C3)ccc1C#CC1(CC(=O)O)CC1 [260-B] | 7.76
Cc1nc(-c2nnn(C)c2NC(=O)OC(C)C2CC2(F)F)ccc1C#CC1(CC(=O)O)CC1 (stereo not drawn) [compound 081] | 6.76
Cc1nc(-c2nnn(C)c2NC(=O)OC(C)C(C)(C)C)ccc1C#CC1(CC(=O)O)CC1 (stereo not drawn) [compound 319] | 6.91

Same assay, conditions: Table 1; FLIPR method, CHO-K1 cells overexpressing hLPAR1; read-out: LPAR1 inhibitory activity IC50

SMILES | pIC50
Cc1nc(-c2nnn(C)c2COC(=O)N(C)CC2CCC2)ccc1C#CC1CC(F)(F)CC1C(=O)O (racemic) [compound 362] | 7.69
Cc1nc(-c2nnn(C)c2NC(=O)O[C@H](C)CC2CC2)ccc1C#C[C@@H]1CC(F)(F)C[C@H]1C(=O)O (mixture of isomers) [compound 205, trans-2-((6-(5-(((((R)-1-cyclopropylpropan-2-yl)oxy)carbonyl)amino)-1-methyl-1H-1,2,3-triazol-4-yl)-2-methylpyridin-3-yl)ethynyl)-4,4-difluorocyclopentane-1-carboxylic acid] | 8.51
Cc1nc(-c2onc(C)c2NC(=O)O[C@H](C)CC(C)(F)F)ccc1C#C[C@@H]1CCC[C@H]1C(=O)O [compound 343] | 8.24
CCOCc1ccnc(NCc2c(-c3ccc(C#CC4(CC(=O)O)CC4)c(C)n3)nnn2C)n1 [compound 364] | 6.69
Cc1nc(-c2nnn(C)c2COC(=O)N(C)CC2CCCC2)ccc1C#CC1(CC(=O)O)CC1 [compound 039, 2-(1-((6-(5-((((cyclopentylmethyl)(methyl)carbamoyl)oxy)methyl)-1-methyl-1H-1,2,3-triazol-4-yl)-2-methylpyridin-3-yl)ethynyl)cyclopropyl)acetic acid] | 8.38
Cc1nc(-c2nnn(C)c2COC(=O)N(C)CC2CCC(F)(F)C2)ccc1C#CC1(CC(=O)O)CC1 (stereo not drawn) [compound 094] | 7.52
CCC(F)(F)C[C@@H](C)OC(=O)Nc1c(-c2ccc(C#CC3(CC(=O)O)CC3)c(C)n2)nnn1C [compound 264] | 7.33
Cc1nc(-c2nnn(C)c2NC(=O)O[C@H](C)c2ccccc2Cl)ccc1C#CC1(CC(=O)O)CC1 [compound 013, (R)-2-(1-((6-(5-(((1-(2-chlorophenyl)ethoxy)carbonyl)amino)-1-methyl-1H-1,2,3-triazol-4-yl)-2-methylpyridin-3-yl)ethynyl)cyclopropyl)acetic acid] | 8.59
Cc1nc(-c2nnn(C)c2NC(=O)O[C@H](C)CC(C)(F)F)ccc1C#C[C@@H]1CC[C@H]1C(=O)O (mixture of isomers) [213-A, trans-2-((6-(5-(((((R)-4,4-difluoropentan-2-yl)oxy)carbonyl)amino)-1-methyl-1H-1,2,3-triazol-4-yl)-2-methylpyridin-3-yl)ethynyl)cyclobutane-1-carboxylic acid] | 7.32
CCC(F)(F)CN(C)C(=O)OCc1c(-c2ccc(C#CC3(CC(=O)O)CC3)c(C)n2)nnn1C [compound 082] | 6.80
CCC[C@@H](C)OC(=O)Nc1c(C)noc1-c1ccc(C#C[C@@H]2CC[C@H]2C(=O)O)c(C)n1 [compound 339] | 8.59
Cc1nc(-c2nnn(C)c2NC(=O)OC(C)CC(C)(C)F)ccc1C#CC1CCC1C(=O)O (single isomer, unassigned) [306-A] | 7.30
Cc1nc(-c2nnn(C)c2NC(=O)O[C@H](C)c2ccccc2)ccc1C#C[C@@H]1CC(F)(F)C[C@H]1C(=O)O [compound 226] | 9.40
Cc1nc(-c2nnn(C)c2COC(=O)N(C)CC2CCC2(F)F)ccc1C#CC1(CC(=O)O)CC1 (stereo not drawn) [compound 026, 2-(1-((6-(5-(((((2,2-difluorocyclobutyl)methyl)(methyl)carbamoyl)oxy)methyl)-1-methyl-1H-1,2,3-triazol-4-yl)-2-methylpyridin-3-yl)ethynyl)cyclopropyl)acetic acid] | 7.28
CCCCN(C)C(=O)OCc1c(-c2ccc(C#CC3(CC(=O)O)CC3)c(C)n2)nnn1C [compound 004, 2-(1-((6-(5-(((butyl(methyl)carbamoyl)oxy)methyl)-1-methyl-1H-1,2,3-triazol-4-yl)-2-methylpyridin-3-yl)ethynyl)cyclopropyl)acetic acid] | 7.18
CCC[C@@H](C)OC(=O)Nc1c(-c2ccc(C#CC3(CC(=O)O)CC3)c(C)n2)nnn1C [010-A] | 7.34
Cc1nc(-c2nnn(C)c2NC(=O)O[C@H](C)CC(C)(C)F)ccc1C#C[C@@H]1CCC[C@H]1C(=O)O (mixture of isomers) [244-A, trans-2-((6-(5-(((((R)-4-fluoro-4-methylpentan-2-yl)oxy)carbonyl)amino)-1-methyl-1H-1,2,3-triazol-4-yl)-2-methylpyridin-3-yl)ethynyl)cyclopentane-1-carboxylic acid] | 7.70
CCCCN(C)C(=O)OCc1c(-c2ccc(C#CC3(CC(=O)O)CC3)c(CC)n2)nnn1C [compound 100] | 7.35
Cc1nc(-c2nnn(C)c2COC(=O)N(C)CC2CCCC2(F)F)ccc1C#CC1(CC(=O)O)CC1 (stereo not drawn) [compound 095] | 7.40
Cc1nc(-c2nnn(C)c2NC(=O)OC(C)C2CCC2)ccc1C#CC1(CC(=O)O)CC1 (stereo not drawn) [032-A, 2-(1-((6-(5-(((1-cyclobutylethoxy)carbonyl)amino)-1-methyl-1H-1,2,3-triazol-4-yl)-2-methylpyridin-3-yl)ethynyl)cyclopropyl)acetic acid] | 9.22
Cc1nc(-c2nnn(C)c2NC(=O)O[C@H](C)c2ccccc2)ccc1C#C[C@@H]1CCCC[C@H]1C(=O)O (mixture of isomers) [027-B, trans-2-((2-methyl-6-(1-methyl-5-((((R)-1-phenylethoxy)carbonyl)amino)-1H-1,2,3-triazol-4-yl)pyridin-3-yl)ethynyl)cyclohexane-1-carboxylic acid] | 7.31
Cc1nc(-c2nnn(C)c2NC(=O)OC(C)c2cc(F)cnc2Cl)ccc1C#CC1(CC(=O)O)CC1 (stereo not drawn) [compound 023, 2-(1-((6-(5-(((1-(2-chloro-5-fluoropyridin-3-yl)ethoxy)carbonyl)amino)-1-methyl-1H-1,2,3-triazol-4-yl)-2-methylpyridin-3-yl)ethynyl)cyclopropyl)acetic acid] | 7.34
Cc1nc(-c2nnn(C)c2NC(=O)OC(C)C2CC(F)(F)C2)ccc1C#CC1(CC(=O)O)CC1 (stereo not drawn) [compound 029, 2-(1-((6-(5-(((1-(3,3-difluorocyclobutyl)ethoxy)carbonyl)amino)-1-methyl-1H-1,2,3-triazol-4-yl)-2-methylpyridin-3-yl)ethynyl)cyclopropyl)acetic acid] | 6.66
Cc1nc(-c2nnn(C)c2NC(=O)OC(C)C2CCC2)ccc1C#CC1CC(F)(F)CC1C(=O)O (stereo not drawn) [242-A] | 8.15
CCCC(C)OC(=O)Nc1c(-c2ccc(C#CC3(CC(=O)O)CC3)c(C)n2)nnn1C (stereo not drawn) [compound 010, 2-(1-((2-methyl-6-(1-methyl-5-(((pentan-2-yloxy)carbonyl)amino)-1H-1,2,3-triazol-4-yl)pyridin-3-yl)ethynyl)cyclopropyl)acetic acid] | 7.25
Cc1nc(-c2nnn(C)c2COC(=O)N(C)CCC(C)(F)F)ccc1C#CC1(CC(=O)O)CC1 [compound 038, 2-(1-((6-(5-((((3,3-difluorobutyl)(methyl)carbamoyl)oxy)methyl)-1-methyl-1H-1,2,3-triazol-4-yl)-2-methylpyridin-3-yl)ethynyl)cyclopropyl)acetic acid] | 7.29
CCc1nc(-c2nnn(C)c2COC(=O)N(C)CCCCF)ccc1C#CC1(CC(=O)O)CC1 [compound 230] | 7.22
CCC(F)CN(C)C(=O)OCc1c(-c2ccc(C#CC3(CC(=O)O)CC3)c(C)n2)nnn1C (stereo not drawn) [compound 036, 2-(1-((6-(5-((((2-fluorobutyl)(methyl)carbamoyl)oxy)methyl)-1-methyl-1H-1,2,3-triazol-4-yl)-2-methylpyridin-3-yl)ethynyl)cyclopropyl)acetic acid] | 6.99

Same assay, conditions: read-out: LPAR1 inhibitory activity IC50; Table 1; FLIPR method, CHO-K1 cells overexpressing hLPAR1

SMILES | pIC50
Cc1nc(-c2nnn(C)c2NC(=O)OC(C)CCCF)ccc1C#CC1(CC(=O)O)CC1 (racemic) [compound 280] | 7.12
Cc1nc(-c2nnn(C)c2COC(=O)N(C)CC2CCC2)ccc1C#CC1(CC(=O)O)CC1 [compound 017] | 7.37
